Test results as given in the supplement of paper PMC10307832.

Key:
Assay in all cases: relative viability (nuclei count vs DMSO), 5 days (fraction); higher = more cells survive
Bosutinib + Alpelisib = compound: COc1cc(Nc2c(C#N)cnc3cc(OCCCN4CCN(C)CC4)c(OC)cc23)c(Cl)cc1Cl [Bosutinib] + Cc1nc(NC(=O)N2CCC[C@H]2C(N)=O)sc1-c1ccnc(C(C)(C)C(F)(F)F)c1 [Alpelisib] (partner 2 µM)
In short: (§1)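 Relative viability divides the nuclei count in treated wells by that in vehicle wells. Lung cancer cell lines were seeded in 1536-well plates, dosed by pin tool the next day, and fixed and stained after 5 days in one step with final 0.05% Triton X-100, 1% formaldehyde and 1 ug/ml Hoechst. Dosing was a single drug or a fixed anchor-drug dose plus five library-drug doses (not always all listed) in √10 steps, and values are medians of duplicate plates imaged at 4×.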

Bosutinib + Pictilisib = compound: COc1cc(Nc2c(C#N)cnc3cc(OCCCN4CCN(C)CC4)c(OC)cc23)c(Cl)cc1Cl [Bosutinib] + CS(=O)(=O)N1CCN(Cc2cc3nc(-c4cccc5[nH]ncc45)nc(N4CCOCC4)c3s2)CC1 [Pictilisib] (partner 1 µM)
In short: as §1

Bosutinib + Lapatinib = compound: COc1cc(Nc2c(C#N)cnc3cc(OCCCN4CCN(C)CC4)c(OC)cc23)c(Cl)cc1Cl [Bosutinib] + CS(=O)(=O)CCNCc1ccc(-c2ccc3ncnc(Nc4ccc(OCc5cccc(F)c5)c(Cl)c4)c3c2)o1 [Lapatinib] (partner 2 µM)
In short: as §1

Bosutinib + Phenformin = compound: COc1cc(Nc2c(C#N)cnc3cc(OCCCN4CCN(C)CC4)c(OC)cc23)c(Cl)cc1Cl [Bosutinib] + N=C(N)NC(=N)NCCc1ccccc1 [Phenformin] (partner 250 µM)
In short: as §1

Bosutinib + Dasatinib = compound: COc1cc(Nc2c(C#N)cnc3cc(OCCCN4CCN(C)CC4)c(OC)cc23)c(Cl)cc1Cl [Bosutinib] + Cc1nc(Nc2ncc(C(=O)Nc3c(C)cccc3Cl)s2)cc(N2CCN(CCO)CC2)n1 [Dasatinib] (partner 0.075 µM)
In short: as §1

| Cell Line | relative viability (Bosutinib + Alpelisib; first compound 0.01 µM) | relative viability (Bosutinib + Alpelisib; first compound 0.03162 µM) | relative viability (Bosutinib + Alpelisib; first compound 0.1 µM) | relative viability (Bosutinib + Alpelisib; first compound 1 µM) | relative viability (Bosutinib + Pictilisib; first compound 0.01 µM) | relative viability (Bosutinib + Pictilisib; first compound 0.03162 µM) | relative viability (Bosutinib + Pictilisib; first compound 0.1 µM) | relative viability (Bosutinib + Pictilisib; first compound 1 µM) | relative viability (Bosutinib + Lapatinib; first compound 0.01 µM) | relative viability (Bosutinib + Lapatinib; first compound 0.03162 µM) | relative viability (Bosutinib + Lapatinib; first compound 0.1 µM) | relative viability (Bosutinib + Lapatinib; first compound 1 µM) | relative viability (Bosutinib + Phenformin; first compound 0.01 µM) | relative viability (Bosutinib + Phenformin; first compound 0.03162 µM) | relative viability (Bosutinib + Phenformin; first compound 0.1 µM) | relative viability (Bosutinib + Phenformin; first compound 1 µM) | relative viability (Bosutinib + Dasatinib; first compound 0.01 µM) | relative viability (Bosutinib + Dasatinib; first compound 0.03162 µM) | relative viability (Bosutinib + Dasatinib; first compound 0.1 µM) | relative viability (Bosutinib + Dasatinib; first compound 1 µM) |
| --- | --- | --- | --- | --- | --- | --- | --- | --- | --- | --- | --- | --- | --- | --- | --- | --- | --- | --- | --- | --- |
| NCI-H2087 | 1.18 | 1.15 | 1.19 | 1 | 0.753 | 0.865 | 0.972 | 0.798 | 0.956 | 1.07 | 1.1 | 1.09 | 0.563 | 0.43 | 0.411 | 0.457 | 0.871 | 0.848 | 0.913 | 0.848 |
| NCI-H2126 | 0.712 | 0.781 | 0.733 | 0.685 | 0.496 | 0.517 | 0.522 | 0.506 | 0.742 | 0.718 | 0.724 | 0.701 | 0.519 | 0.567 | 0.544 | 0.568 | 0.583 | 0.571 | 0.594 | 0.62 |
| NCI-H2170 | 0.821 | 0.866 | 0.797 | 0.711 | 0.348 | 0.359 | 0.301 | 0.271 | 0.268 | 0.268 | 0.282 | 0.282 | 0.391 | 0.418 | 0.427 | 0.328 | 0.559 | 0.583 | 0.556 | 0.608 |
| NCI-H2228 | 0.772 |  | 0.75 | 0.587 | 0.451 |  | 0.229 | 0.297 | 1.19 |  | 1.18 | 1.04 | 0.308 | 0.236 | 0.284 | 0.326 | 0.494 | 0.474 | 0.56 | 0.62 |
| NCI-H2347 | 1 | 1.07 | 1.06 | 1.12 | 0.648 | 0.575 | 0.697 | 0.383 | 0.923 | 1.05 | 0.911 | 0.989 | 0.323 | 0.453 | 0.54 | 0.376 | 0.296 | 0.324 | 0.314 | 0.258 |
| NCI-H2405 | 0.886 | 0.759 | 0.837 | 0.365 | 0.481 | 0.449 | 0.435 | 0.311 | 1.23 | 1.2 | 0.983 | 0.895 | 0.413 | 0.385 | 0.386 | 0.281 | 0.259 | 0.204 | 0.215 | 0.238 |
| NCI-H3122 | 0.769 | 0.797 | 0.821 | 0.993 | 0.623 | 0.609 | 0.624 | 0.761 | 0.99 | 1.05 | 1.02 | 0.933 | 0.399 | 0.375 | 0.35 | 0.3 | 0.894 | 0.716 | 0.768 | 0.781 |
| PC-3 [JPC-3] | 0.962 | 1.03 | 1.02 | 0.937 | 0.756 | 0.726 | 0.73 | 0.59 | 0.432 | 0.428 | 0.431 | 0.505 | 0.481 | 0.506 | 0.43 | 0.441 | 1.04 | 0.931 | 0.996 | 0.834 |
| PC-14 | 0.91 | 0.9 | 0.828 | 0.323 | 0.61 | 0.588 | 0.449 | 0.125 | 0.35 | 0.309 | 0.298 | 0.227 | 0.539 | 0.585 | 0.5 | 0.277 | 0.282 | 0.239 | 0.238 | 0.0662 |
| RERF-LC-KJ | 0.702 | 0.834 | 0.756 | 0.678 | 0.544 | 0.581 | 0.576 | 0.459 | 0.836 | 0.832 | 0.878 | 0.905 | 0.407 | 0.427 | 0.42 | 0.387 | 0.746 | 0.882 | 0.826 | 0.735 |
| SK-LU-1 | 0.949 | 1.31 | 1.12 | 0.46 | 0.574 | 0.685 | 0.517 | 0.545 | 0.808 | 0.919 | 1 | 0.586 | 0.538 | 0.473 | 0.507 | 0.303 | 0.221 | 0.174 | 0.186 | 0.255 |
| SK-MES-1 | 0.876 | 0.971 | 0.999 | 1.06 | 0.374 | 0.351 | 0.437 | 0.305 | 0.435 | 0.512 | 0.555 | 0.505 | 0.66 | 0.686 | 0.632 | 0.502 | 0.372 | 0.412 | 0.393 | 0.392 |
| SW 1573 | 0.834 | 0.787 | 0.767 | 0.65 | 0.508 | 0.516 | 0.492 | 0.432 | 1.32 | 1.08 | 1.14 | 0.935 | 0.411 | 0.357 | 0.358 | 0.27 | 0.459 | 0.553 | 0.505 | 0.583 |
| UMC-11 | 1 | 1.04 | 0.934 | 0.847 | 0.889 | 0.81 | 0.875 | 0.764 | 1.1 | 1.03 | 1.03 | 0.821 | 0.321 | 0.312 | 0.312 | 0.247 | 0.409 | 0.454 | 0.456 | 0.455 |
